Converted amounts (≈) assume the structure as drawn. Where a SMILES comes first, the peptide text is derived from it. Bridges are numbered along the chain shown (N, C = ends). [ ]: non-standard residue; d: D form. The star is where a group is joined. Ileψ(thiazoline)Cys = CC[C@H](C)[C@H](N)C1=N[C@H](C(=O)*)CS1; dOrn = NCCC[C@@H](N)C(=O)O
Key:
Type in all cases: functional
Staphylococcus aureus [1] = experiment: Induction of PvraSr::lacZ gene expression in Staphylococcus aureus SH1000 at 150 ug/ml after 2 hrs by beta-galactosidase reporter gene assay relative to untreated control
Staphylococcus aureus [2] = experiment: Induction of Ppbp2::lacZ gene expression in Staphylococcus aureus SH1000 at 150 ug/ml after 2 hrs by beta-galactosidase reporter gene assay relative to untreated control
Staphylococcus aureus [3] = experiment: Induction of PtcaA::lacZ gene expression in Staphylococcus aureus SH1000 at 150 ug/ml after 2 hrs by beta-galactosidase reporter gene assay relative to untreated control
Staphylococcus aureus [4] = experiment: Antimicrobial activity against beta-lactamase producing Staphylococcus aureus SH1000
Staphylococcus aureus [5] = experiment: Induction of PlytR::lacZ gene expression in Staphylococcus aureus SH1000 at 150 ug/ml after 2 hrs by beta-galactosidase reporter gene assay relative to untreated control
Staphylococcus aureus [6] = experiment: Induction of PsgtB::lacZ gene expression in Staphylococcus aureus SH1000 at 150 ug/ml after 2 hrs by beta-galactosidase reporter gene assay relative to untreated control
Staphylococcus aureus [7] = experiment: Induction of PlytR::lacZ gene expression in Staphylococcus aureus SH1000 at 13.4 ug/ml after 2 hrs by beta-galactosidase reporter gene assay relative to untreated control
Staphylococcus aureus [8] = experiment: Induction of PtcaA::lacZ gene expression in Staphylococcus aureus SH1000 at 13.4 ug/ml after 2 hrs by beta-galactosidase reporter gene assay relative to untreated control
Staphylococcus aureus [9] = experiment: Induction of Ppbp2::lacZ gene expression in Staphylococcus aureus SH1000 at 13.4 ug/ml after 2 hrs by beta-galactosidase reporter gene assay relative to untreated control
Staphylococcus aureus [10] = experiment: Induction of PvraSr::lacZ gene expression in Staphylococcus aureus SH1000 at 13.4 ug/ml after 2 hrs by beta-galactosidase reporter gene assay relative to untreated control
Staphylococcus aureus [11] = experiment: Induction of PsgtB::lacZ gene expression in Staphylococcus aureus SH1000 at 13.4 ug/ml after 2 hrs by beta-galactosidase reporter gene assay relative to untreated control
Staphylococcus aureus [12] = experiment: Induction of PvraSr::lacZ gene expression in Staphylococcus aureus SH1000 at 1 ug/ml after 2 hrs by beta-galactosidase reporter gene assay relative to untreated control
Staphylococcus aureus [13] = experiment: Induction of PlytR::lacZ gene expression in Staphylococcus aureus SH1000 at 1 ug/ml after 2 hrs by beta-galactosidase reporter gene assay relative to untreated control
Staphylococcus aureus [14] = experiment: Induction of PsgtB::lacZ gene expression in Staphylococcus aureus SH1000 at 1 ug/ml after 2 hrs by beta-galactosidase reporter gene assay relative to untreated control
Staphylococcus aureus [15] = experiment: Induction of Ppbp2::lacZ gene expression in Staphylococcus aureus SH1000 at 1 ug/ml after 2 hrs by beta-galactosidase reporter gene assay relative to untreated control
Staphylococcus aureus [16] = experiment: Induction of PtcaA::lacZ gene expression in Staphylococcus aureus SH1000 at 1 ug/ml after 2 hrs by beta-galactosidase reporter gene assay relative to untreated control
Staphylococcus aureus [17] = experiment: Induction of PtcaA::lacZ gene expression in Staphylococcus aureus SH1000 at 0.05 ug/ml after 2 hrs by beta-galactosidase reporter gene assay relative to untreated control
Staphylococcus aureus [18] = experiment: Induction of Ppbp2::lacZ gene expression in Staphylococcus aureus SH1000 at 0.05 ug/ml after 2 hrs by beta-galactosidase reporter gene assay relative to untreated control
Staphylococcus aureus [19] = experiment: Induction of PvraSr::lacZ gene expression in Staphylococcus aureus SH1000 at 0.05 ug/ml after 2 hrs by beta-galactosidase reporter gene assay relative to untreated control
Staphylococcus aureus [20] = experiment: Induction of PsgtB::lacZ gene expression in Staphylococcus aureus SH1000 at 0.05 ug/ml after 2 hrs by beta-galactosidase reporter gene assay relative to untreated control
Staphylococcus aureus [21] = experiment: Induction of PlytR::lacZ gene expression in Staphylococcus aureus SH1000 at 0.05 ug/ml after 2 hrs by beta-galactosidase reporter gene assay relative to untreated control
Staphylococcus aureus [22] = experiment: Induction of PsgtB::lacZ gene expression in Staphylococcus aureus SH1000 at 3 ug/ml after 2 hrs by beta-galactosidase reporter gene assay relative to untreated control
Staphylococcus aureus [23] = experiment: Induction of PvraSr::lacZ gene expression in Staphylococcus aureus SH1000 at 3 ug/ml after 2 hrs by beta-galactosidase reporter gene assay relative to untreated control
Staphylococcus aureus [24] = experiment: Induction of PlytR::lacZ gene expression in Staphylococcus aureus SH1000 at 3 ug/ml after 2 hrs by beta-galactosidase reporter gene assay relative to untreated control
Staphylococcus aureus [25] = experiment: Induction of Ppbp2::lacZ gene expression in Staphylococcus aureus SH1000 at 3 ug/ml after 2 hrs by beta-galactosidase reporter gene assay relative to untreated control
Staphylococcus aureus [26] = experiment: Induction of PtcaA::lacZ gene expression in Staphylococcus aureus SH1000 at 3 ug/ml after 2 hrs by beta-galactosidase reporter gene assay relative to untreated control

## N[C@@H]1CONC1=O [CYCLOSERINE]
Staphylococcus aureus [1]
  fold change (FC): 4.08
Staphylococcus aureus [2]
  fold change (FC): 3.41
Staphylococcus aureus [3]
  fold change (FC): 4.6
Staphylococcus aureus [4]
  MIC: 1 µg/mL (≈ 9.79 µM)
Staphylococcus aureus [5]
  fold change (FC): 3.13
Staphylococcus aureus [6]
  fold change (FC): 15.63

## CC[C@H](C)[C@H](N)C1=N[C@H](C(=O)N[C@@H](CC(C)C)C(=O)N[C@H](CCC(=O)O)C(=O)N[C@H](C(=O)N[C@H]2CCCCNC(=O)[C@H](CC(N)=O)NC(=O)[C@@H](CC(=O)O)NC(=O)[C@H](Cc3cnc[nH]3)NC(=O)[C@@H](Cc3ccccc3)NC(=O)[C@H]([C@@H](C)CC)NC(=O)[C@@H](CCCN)NC2=O)[C@@H](C)CC)CS1 [BACITRACIN] ({Ileψ(thiazoline)Cys}-L[dE]IK[dOrn]I[dF]H[dD]N; lactam 4-C)
Staphylococcus aureus [7]
  fold change (FC): 1.94
Staphylococcus aureus [8]
  fold change (FC): 3.99
Staphylococcus aureus [9]
  fold change (FC): 3.7
Staphylococcus aureus [10]
  fold change (FC): 1.92
Staphylococcus aureus [11]
  fold change (FC): 4.63
Staphylococcus aureus [4]
  MIC: 2 µg/mL (≈ 1.41 µM)

## COc1cc(Cc2cnc(N)nc2N)cc(OC)c1OC [TRIMETHOPRIM]
Staphylococcus aureus [12]
  fold change (FC): 0.9
Staphylococcus aureus [13]
  fold change (FC): 0.92
Staphylococcus aureus [14]
  fold change (FC): 1.19
Staphylococcus aureus [15]
  fold change (FC): 0.88
Staphylococcus aureus [16]
  fold change (FC): 1.24

## CO[C@H]1/C=C/O[C@@]2(C)Oc3c(C)c(O)c4c(O)c(c(/C=N/N5CCN(C)CC5)c(O)c4c3C2=O)NC(=O)/C(C)=C\C=C\[C@H](C)[C@H](O)[C@@H](C)[C@@H](O)[C@@H](C)[C@H](OC(C)=O)[C@@H]1C [RIFAMPIN]
Staphylococcus aureus [17]
  fold change (FC): 0.99
Staphylococcus aureus [18]
  fold change (FC): 1.9
Staphylococcus aureus [19]
  fold change (FC): 1.2
Staphylococcus aureus [20]
  fold change (FC): 1.19
Staphylococcus aureus [4]
  MIC: 0.05 µg/mL (≈ 0.0608 µM)
Staphylococcus aureus [21]
  fold change (FC): 0.98

## O=C(N[C@H](CO)[C@H](O)c1ccc([N+](=O)[O-])cc1)C(Cl)Cl [CHLORAMPHENICOL]
Staphylococcus aureus [22]
  fold change (FC): 0.93
Staphylococcus aureus [23]
  fold change (FC): 0.88
Staphylococcus aureus [24]
  fold change (FC): 1.07
Staphylococcus aureus [25]
  fold change (FC): 0.94
Staphylococcus aureus [26]
  fold change (FC): 1.04
Staphylococcus aureus [4]
  MIC: 0.5 µg/mL (≈ 1.55 µM)

From ChEMBL document CHEMBL1275483, “Staphylococcus aureus cell wall stress stimulon gene-lacZ fusion strains: potential for use in screening for cell wall-active antimicrobials” (2008)
